Data published in ChEMBL document CHEMBL3774336, “Identification of spirooxindole and dibenzoxazepine motifs as potent mineralocorticoid receptor antagonists” (Bioorg Med Chem, 2016).

How the values were obtained:
[1] = Half life of compound in rat liver microsomes; format: ADME
Cytochrome P450 3A4 = Cytochrome P450 3A4 (Homo sapiens, UniProt P08684)
Description: Inhibition of CYP3A4 (unknown origin)

Cytochrome P450 2C9 = Cytochrome P450 2C9 (Homo sapiens, UniProt P11712); assay: Inhibition of CYP2C9 (unknown origin); format: ADME
[2] = target: T1, Androgen receptor (Rattus norvegicus) (UniProt P15207); assay: Inhibition of GST-tagged rat androgen receptor LBD domain expressed in insect cells at 10 uM by Gal4-based fluorescence polarization assay
T1 sequence (whole entry): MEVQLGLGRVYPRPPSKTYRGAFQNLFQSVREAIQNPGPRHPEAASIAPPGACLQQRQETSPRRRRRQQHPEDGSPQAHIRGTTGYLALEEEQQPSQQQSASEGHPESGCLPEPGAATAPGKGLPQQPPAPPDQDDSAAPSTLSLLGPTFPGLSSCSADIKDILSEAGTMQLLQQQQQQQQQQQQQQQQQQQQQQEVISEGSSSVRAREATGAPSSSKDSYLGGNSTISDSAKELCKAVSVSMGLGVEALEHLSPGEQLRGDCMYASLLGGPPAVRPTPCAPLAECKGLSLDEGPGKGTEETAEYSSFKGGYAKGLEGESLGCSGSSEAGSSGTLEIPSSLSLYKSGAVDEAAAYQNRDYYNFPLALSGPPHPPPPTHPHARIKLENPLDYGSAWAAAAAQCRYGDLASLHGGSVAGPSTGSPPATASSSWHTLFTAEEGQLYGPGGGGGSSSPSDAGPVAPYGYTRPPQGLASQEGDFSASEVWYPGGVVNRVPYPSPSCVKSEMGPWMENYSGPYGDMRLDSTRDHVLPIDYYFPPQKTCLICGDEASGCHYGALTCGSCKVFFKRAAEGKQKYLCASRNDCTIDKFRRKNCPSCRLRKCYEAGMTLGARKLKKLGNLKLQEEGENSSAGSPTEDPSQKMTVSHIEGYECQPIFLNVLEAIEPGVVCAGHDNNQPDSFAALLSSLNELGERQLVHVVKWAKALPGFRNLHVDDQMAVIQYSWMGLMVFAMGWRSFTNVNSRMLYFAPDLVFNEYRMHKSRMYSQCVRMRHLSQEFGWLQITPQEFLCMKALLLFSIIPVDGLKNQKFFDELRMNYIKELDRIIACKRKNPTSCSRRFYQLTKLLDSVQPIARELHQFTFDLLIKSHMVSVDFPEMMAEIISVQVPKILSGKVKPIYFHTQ

[3] = target: T2, Estrogen receptor (Homo sapiens) (UniProt P03372); assay: Inhibition of estrogen receptor (unknown origin) at 10 uM by Gal4-based luciferase assay
T2 sequence (whole entry): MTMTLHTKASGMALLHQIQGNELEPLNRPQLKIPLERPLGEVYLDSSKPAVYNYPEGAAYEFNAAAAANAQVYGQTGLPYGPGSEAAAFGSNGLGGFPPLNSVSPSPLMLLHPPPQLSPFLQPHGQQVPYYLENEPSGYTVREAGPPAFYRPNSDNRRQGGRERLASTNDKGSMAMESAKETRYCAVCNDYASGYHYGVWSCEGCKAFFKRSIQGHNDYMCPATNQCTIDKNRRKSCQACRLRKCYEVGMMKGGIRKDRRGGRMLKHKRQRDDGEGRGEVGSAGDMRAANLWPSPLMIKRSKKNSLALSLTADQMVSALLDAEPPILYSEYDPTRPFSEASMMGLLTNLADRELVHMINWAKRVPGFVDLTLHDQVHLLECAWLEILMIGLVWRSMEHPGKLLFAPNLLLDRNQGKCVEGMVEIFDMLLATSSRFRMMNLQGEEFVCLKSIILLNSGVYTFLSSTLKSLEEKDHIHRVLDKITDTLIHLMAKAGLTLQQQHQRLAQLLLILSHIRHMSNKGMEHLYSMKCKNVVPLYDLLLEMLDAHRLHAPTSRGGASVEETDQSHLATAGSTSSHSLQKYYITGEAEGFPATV

Cytochrome P450 2D6 = Cytochrome P450 2D6 (Homo sapiens, UniProt P10635); assay: Inhibition of CYP2D6 (unknown origin); format: ADME
[4] = target: Mineralocorticoid receptor (Homo sapiens, UniProt P08235, C808S); assay: (§1) Agonist activity against 6xHis-MBP-fused human MR LBD domain (732 to 984 amino acid residues) C808S mutant expressed in Escherichia coli BL21(DE3) assessed as receptor activation after 16 hrs by luciferase assay
[5] = system: T3, Mineralocorticoid receptor (Homo sapiens), P08235 [C808S]; assay: as §1
T3 sequence (whole entry): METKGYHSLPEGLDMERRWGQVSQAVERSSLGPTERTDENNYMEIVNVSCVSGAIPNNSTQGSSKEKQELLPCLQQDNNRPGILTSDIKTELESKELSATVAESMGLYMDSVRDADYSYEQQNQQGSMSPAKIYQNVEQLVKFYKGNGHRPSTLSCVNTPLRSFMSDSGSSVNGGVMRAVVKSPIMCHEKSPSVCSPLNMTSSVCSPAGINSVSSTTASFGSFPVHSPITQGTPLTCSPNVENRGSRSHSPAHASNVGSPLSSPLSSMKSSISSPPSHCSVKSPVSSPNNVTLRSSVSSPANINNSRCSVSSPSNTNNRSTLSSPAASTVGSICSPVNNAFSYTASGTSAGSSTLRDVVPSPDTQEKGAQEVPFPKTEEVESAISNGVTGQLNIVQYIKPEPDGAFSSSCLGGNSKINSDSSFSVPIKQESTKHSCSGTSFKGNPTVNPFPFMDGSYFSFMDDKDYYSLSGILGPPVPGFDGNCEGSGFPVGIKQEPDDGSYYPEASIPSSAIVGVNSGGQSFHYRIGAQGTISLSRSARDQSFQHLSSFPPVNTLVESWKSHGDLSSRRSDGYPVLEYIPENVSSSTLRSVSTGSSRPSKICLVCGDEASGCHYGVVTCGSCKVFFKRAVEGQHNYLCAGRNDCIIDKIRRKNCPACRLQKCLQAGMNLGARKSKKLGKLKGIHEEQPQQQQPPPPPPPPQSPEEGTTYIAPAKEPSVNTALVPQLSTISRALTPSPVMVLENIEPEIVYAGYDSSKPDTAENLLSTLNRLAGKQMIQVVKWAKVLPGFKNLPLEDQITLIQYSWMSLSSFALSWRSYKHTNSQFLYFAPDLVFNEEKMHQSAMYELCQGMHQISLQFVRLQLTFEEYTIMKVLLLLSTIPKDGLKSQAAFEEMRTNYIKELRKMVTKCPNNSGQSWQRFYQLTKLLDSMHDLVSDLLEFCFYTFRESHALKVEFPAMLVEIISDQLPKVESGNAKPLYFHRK

Chain of Cytochrome P450 2D6 (P10635 whole entry, the tested form may be a part): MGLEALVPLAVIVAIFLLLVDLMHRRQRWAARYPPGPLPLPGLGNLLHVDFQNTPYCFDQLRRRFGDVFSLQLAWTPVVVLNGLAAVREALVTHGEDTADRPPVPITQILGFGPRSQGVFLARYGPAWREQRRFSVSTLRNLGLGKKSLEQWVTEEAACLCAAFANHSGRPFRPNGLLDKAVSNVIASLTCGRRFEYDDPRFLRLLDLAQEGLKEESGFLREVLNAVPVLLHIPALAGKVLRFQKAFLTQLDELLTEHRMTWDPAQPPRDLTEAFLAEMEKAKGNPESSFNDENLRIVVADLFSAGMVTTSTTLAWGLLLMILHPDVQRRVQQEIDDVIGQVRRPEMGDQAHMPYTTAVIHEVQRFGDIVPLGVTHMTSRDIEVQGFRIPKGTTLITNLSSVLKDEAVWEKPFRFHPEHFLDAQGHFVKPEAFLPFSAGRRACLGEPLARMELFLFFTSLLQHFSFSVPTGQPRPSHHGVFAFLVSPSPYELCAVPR
Chain of Cytochrome P450 2C9 (P11712 whole entry, the tested form may be a part): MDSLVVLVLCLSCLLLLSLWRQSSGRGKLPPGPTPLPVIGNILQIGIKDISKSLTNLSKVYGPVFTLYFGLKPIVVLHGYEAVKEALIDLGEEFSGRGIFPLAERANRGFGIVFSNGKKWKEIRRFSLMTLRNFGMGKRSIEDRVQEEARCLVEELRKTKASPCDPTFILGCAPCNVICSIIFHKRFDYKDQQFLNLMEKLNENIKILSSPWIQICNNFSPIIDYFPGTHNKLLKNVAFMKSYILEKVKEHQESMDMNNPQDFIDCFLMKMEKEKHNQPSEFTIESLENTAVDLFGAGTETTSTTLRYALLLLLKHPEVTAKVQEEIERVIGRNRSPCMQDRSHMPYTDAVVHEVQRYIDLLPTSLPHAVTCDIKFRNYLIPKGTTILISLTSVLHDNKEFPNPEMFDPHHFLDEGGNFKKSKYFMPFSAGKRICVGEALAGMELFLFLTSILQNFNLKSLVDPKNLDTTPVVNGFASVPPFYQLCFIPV
Chain of Cytochrome P450 3A4 (P08684 whole entry): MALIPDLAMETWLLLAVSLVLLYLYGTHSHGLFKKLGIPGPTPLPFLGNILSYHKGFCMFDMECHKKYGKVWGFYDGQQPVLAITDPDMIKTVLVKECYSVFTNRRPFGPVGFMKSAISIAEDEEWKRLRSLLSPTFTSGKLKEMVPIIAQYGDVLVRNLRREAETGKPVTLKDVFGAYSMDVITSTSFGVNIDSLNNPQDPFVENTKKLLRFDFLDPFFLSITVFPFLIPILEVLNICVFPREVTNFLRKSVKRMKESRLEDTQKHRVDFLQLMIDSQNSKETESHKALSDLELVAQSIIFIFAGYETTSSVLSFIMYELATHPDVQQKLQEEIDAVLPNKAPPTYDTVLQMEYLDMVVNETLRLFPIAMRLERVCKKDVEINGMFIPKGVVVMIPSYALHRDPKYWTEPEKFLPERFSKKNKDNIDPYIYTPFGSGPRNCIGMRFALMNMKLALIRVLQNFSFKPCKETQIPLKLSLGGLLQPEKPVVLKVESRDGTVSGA

| SMILES | half-life [1] [min] | IC50 (Cytochrome P450 3A4) [µM] | IC50 (Cytochrome P450 2C9) [µM] | inhibition [2] [%] | inhibition [3] [%] | IC50 (Cytochrome P450 2D6) [µM] | EC50 [4] [µM] | Activity [5] [%] |
| --- | --- | --- | --- | --- | --- | --- | --- | --- |
| CN1CCC2(CC1)C(=O)Nc1cc(/C=C3\c4ccccc4COc4cc(F)ccc43)ccc12 | 31 | 7.04 | 2.83 | < 40 | < 40 | 7.62 |  |  |
| O=C1COc2ccc(/C=C3\c4ccccc4COc4cc(F)ccc43)cc2N1 |  |  |  | 77 |  |  | 0.004 | 31 |
